Measured values reported in US20240182445A1 (ONO PHARMACEUTICAL CO., LTD., priority 2019, published 2024).

Target: T1, human TREK-1 (Homo sapiens, UniProt O95069)
T1 construct: expressed in transfected cells
T1 sequence (O95069 1-426): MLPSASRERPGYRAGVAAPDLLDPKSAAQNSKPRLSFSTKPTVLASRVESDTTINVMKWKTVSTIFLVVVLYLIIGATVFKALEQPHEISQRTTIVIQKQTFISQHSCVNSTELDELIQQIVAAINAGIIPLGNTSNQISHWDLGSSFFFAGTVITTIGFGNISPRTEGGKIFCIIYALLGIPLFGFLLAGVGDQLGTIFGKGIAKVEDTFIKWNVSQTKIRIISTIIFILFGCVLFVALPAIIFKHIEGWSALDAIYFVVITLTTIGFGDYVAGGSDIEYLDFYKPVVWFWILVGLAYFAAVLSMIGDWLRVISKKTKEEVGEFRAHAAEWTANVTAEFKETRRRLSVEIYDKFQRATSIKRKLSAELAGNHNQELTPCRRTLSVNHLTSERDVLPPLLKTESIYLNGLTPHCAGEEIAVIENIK
Assay: TREK-1 Thallium (Tl+) flux assay, Method 1
Format: cell-based
Settings: TREK-1 Thallium (Tl+) flux assay; no *^12 (Method 2) mark on these rows
Procedure, shortened: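 Readout: Thallos fluorescence ratio, taken 25 s post-thallium relative to the pre-thallium baseline average, then converted to % inhibition. Cells were CHO-K1 stably expressing human TREK-1, dye-loaded and exposed to test compound (vehicle 0.3% DMSO) for 10 min prior to thallium stimulation.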

Cc1cc(C#Cc2ccc(F)cc2)cnc1NC(=O)c1c(Cl)cnn1CC1CCCN(C(=O)C2CC2)C1 (centres unmarked) [Compound 271, 4-chloro-1-((1-(cyclopropanecarbonyl)piperidin-3-yl)methyl)-N-(5-((4-fluorophenyl)ethynyl)-3-methylpyridin-2-yl)-1H-pyrazole-5-carboxamide]
IC50: 460 nM

Cc1cc(C#Cc2ccc(F)cc2)cnc1NC(=O)c1c(Cl)cnn1CC1CCCN(C(=O)C(C)C)C1 (centres unmarked) [Compound 272, 4-chloro-N-(5-((4-fluorophenyl)ethynyl)-3-methylpyridin-2-yl)-1-((1-isobutyrylpiperidin-3-yl)methyl)-1H-pyrazole-5-carboxamide]
IC50: 460 nM

Cc1cc(C#Cc2ccccc2)cnc1NC(=O)c1c(Cl)cnn1CC1CN(C(=O)C2CC2)C1 [Compound 274, 4-chloro-1-((1-(cyclopropanecarbonyl)azetidin-3-yl)methyl)-N-(3-methyl-5-(phenylethynyl)pyridin-2-yl)-1H-pyrazole-5-carboxamide]
IC50: 470 nM

O=C(Nc1ncc(C#Cc2ccccc2)cc1F)c1c(Cl)cnn1[C@H]1CCOC1 [Compound 275, (S)-4-chloro-N-(3-fluoro-5-(phenylethynyl)pyridin-2-yl)-1-(tetrahydrofuran-3-yl)-1H-pyrazole-5-carboxamide]
IC50: 480 nM

Cc1cc(C#Cc2ccccc2)cnc1NC(=O)c1c(Cl)cnn1CC(C)(C)C#N [Compound 276, 4-chloro-1-(2-cyano-2-methylpropyl)-N-(3-methyl-5-(phenylethynyl)pyridin-2-yl)-1H-pyrazole-5-carboxamide]
IC50: 480 nM

Cc1cc(C#Cc2ccccc2)cnc1NC(=O)c1c(Cl)cnn1C1CCCN(C(=O)OC(C)(C)C)CC1 (centres unmarked) [Compound 277, tert-butyl 4-(4-chloro-5-((3-methyl-5-(phenylethynyl)pyridin-2-yl)carbamoyl)-1H-pyrazol-1-yl)azepane-1-carboxylate]
IC50: 480 nM

Cc1cc(C#Cc2ccccc2)cnc1NC(=O)c1c(Cl)cnn1CC1CC1 [Compound 278, 4-chloro-1-(cyclopropylmethyl)-N-(3-methyl-5-(phenylethynyl)pyridin-2-yl)-1H-pyrazole-5-carboxamide]
IC50: 490 nM

CC1(Cn2ncc(Cl)c2C(=O)Nc2ncc(C#Cc3ccccc3)cc2F)CCCO1 (centres unmarked) [Compound 279, 4-chloro-N-(3-fluoro-5-(phenylethynyl)pyridin-2-yl)-1-((2-methyltetrahydrofuran-2-yl)methyl)-1H-pyrazole-5-carboxamide]
IC50: 490 nM

Cc1cc(C#Cc2ccccc2)cnc1NC(=O)c1c(Cl)cnn1CC1CCCOC1 (centres unmarked) [Compound 280, 4-chloro-N-(3-methyl-5-(phenylethynyl)pyridin-2-yl)-1-((tetrahydro-2H-pyran-3-yl)methyl)-1H-pyrazole-5-carboxamide]
IC50: 490 nM

Cc1cc(C#Cc2ccccc2)cnc1NC(=O)c1c(Cl)cnn1CC1COCC1C (centres unmarked) [Compound 281, 4-chloro-N-(3-methyl-5-(phenylethynyl)pyridin-2-yl)-1-((4-methyltetrahydrofuran-3-yl)methyl)-1H-pyrazole-5-carboxamide]
IC50: 490 nM

Cc1cc(C#Cc2ccccc2)cnc1NC(=O)c1c(Cl)cnn1[C@H]1C[C@@H]2CN(C(=O)C3CC3)C[C@@H]2C1 [Compound 282, 4-chloro-1-[(3aR,5s,6aS)-2-(cyclopropanecarbonyl)octahydro-cyclopenta[c]pyrrol-5-yl]-N-[3-methyl-5-(phenylethynyl)pyridin-2-yl]-1H-pyrazole-5-carboxamide]
IC50: 490 nM

Cc1cc(C#Cc2ccccc2)cnc1NC(=O)c1c(Cl)cnn1-c1ccc2c(c1)OCO2 [Compound 283, 1-(benzol[d][1,3]dioxol-5-yl)-4-chloro-N-(3-methyl-5-(phenylethynyl)pyridin-2-yl)-1H-pyrazole-5-carboxamide]
IC50: 490 nM

Cc1cc(C#Cc2ccc(F)cc2)cnc1NC(=O)c1c(Cl)cnn1CC1CCN(C(=O)C(C)C)CC1C (centres unmarked) [Compound 284, 4-chloro-N-(5-((4-fluorophenyl)ethynyl)-3-methylpyridin-2-yl)-1-((1-isobutyryl-3-methylpiperidin-4-yl)methyl)-1H-pyrazole-5-carboxamide]
IC50: 490 nM

Cc1cc(C#Cc2ccccc2)cc(F)c1NC(=O)c1c(Cl)cnn1C[C@H]1COCCO1 [Compound 285, (S)-1-((1,4-dioxan-2-yl)methyl)-4-chloro-N-(2-fluoro-6-methyl-4-(phenylethynyl)phenyl)-1H-pyrazole-5-carboxamide]
IC50: 500 nM

Cc1cc(C#Cc2cccc(F)c2)cnc1NC(=O)c1c(Cl)cnn1C[C@H]1COCCO1 [Compound 286, (S)-1-((1,4-dioxan-2-yl)methyl)-4-chloro-N-(5-((3-fluorophenyl)ethynyl)-3-methylpyridin-2-yl)-1H-pyrazole-5-carboxamide]
IC50: 500 nM

Cc1cc(C#Cc2ccccc2)cnc1NC(=O)c1c(Cl)cnn1C1CN(C(=O)OC(C)(C)C)C1 [Compound 287, tert-butyl 3-(4-chloro-5-((3-methyl-5-(phenylethynyl)pyridin-2-yl)carbamoyl)-1H-pyrazol-1-yl)azetidine-1-carboxylate]
IC50: 500 nM

CC(C)C(=O)N1CCC[C@H](Cn2ncc(Cl)c2C(=O)Nc2ncc(C#Cc3ccccc3)cc2F)C1 [Compound 288, (S)-4-chloro-N-(3-fluoro-5-(phenylethynyl)pyridin-2-yl)-1-((1-isobutyrylpiperidin-3-yl)methyl)-1H-pyrazole-5-carboxamide]
IC50: 500 nM

Cc1cc(C#Cc2ccccc2)cnc1NC(=O)c1c(Cl)cnn1C1CCC(C#N)C1 (centres unmarked) [Compound 289, 4-chloro-1-(3-cyanocyclopentyl)-N-(3-methyl-5-(phenylethynyl)pyridin-2-yl)-1H-pyrazole-5-carboxamide]
IC50: 510 nM

CC(C)(C)OC(=O)N1CCC(CCn2ncc(Cl)c2C(=O)Nc2ncc(C#Cc3ccccc3)cc2F)CC1 [Compound 290, tert-butyl 4-(2-(4-chloro-5-((3-fluoro-5-(phenylethynyl)pyridin-2-yl)carbamoyl)-1H-pyrazol-1-yl)ethyl)piperidine-1-carboxylate]
IC50: 510 nM

Cc1cc(C#Cc2ccccc2)cnc1NC(=O)c1c(Cl)cnn1[C@@H]1CC[C@@H](NC(=O)OC(C)(C)C)C1 [Compound 291, tert-butyl ((1R,3R)-3-(4-chloro-5-((3-methyl-5-(phenylethynyl)pyridin-2-yl)carbamoyl)-1H-pyrazol-1-yl)cyclopentyl)carbamate]
IC50: 520 nM

Cc1cc(C#Cc2ccccc2)cnc1NC(=O)c1c(Cl)cnn1[C@H]1C[C@H](NC(=O)OC(C)(C)C)C1 [Compound 292, tert-butyl (trans-3-(4-chloro-5-((3-methyl-5-(phenylethynyl)pyridin-2-yl)carbamoyl)-1H-pyrazol-1-yl)cyclobutyl)carbamate]
IC50: 520 nM

Cc1cc(C#Cc2ccc(F)cc2)cnc1NC(=O)c1c(Cl)cnn1C[C@@H]1CCN(C(=O)C(C)C)C[C@H]1F [Compound 293, 4-chloro-1-(((3S,4S)-3-fluoro-1-isobutyrylpiperidin-4-yl)methyl)-N-(5-((4-fluorophenyl)ethynyl)-3-methylpyridin-2-yl)-1H-pyrazole-5-carboxamide]
IC50: 520 nM

CC(C)(C)OC(=O)N[C@H]1CC[C@@H](n2ncc(Cl)c2C(=O)Nc2ncc(C#Cc3ccccc3)cc2F)CC1 [Compound 294, tert-butyl (cis-4-(4-chloro-5-((3-fluoro-5-(phenylethynyl)pyridin-2-yl)carbamoyl)-1H-pyrazol-1-yl)cyclohexyl)carbamate]
IC50: 530 nM

Cc1cc(C#Cc2ccccc2)cnc1NC(=O)c1c(Cl)cnn1CC1(C)CCN(C(=O)C2CC2)CC1 [Compound 295]
IC50: 530 nM

CC(=O)N1CCC[C@H](Cn2ncc(Cl)c2C(=O)Nc2ncc(C#Cc3ccccc3)cc2C)C1 [Compound 296, (S)-1-((1-acetylpiperidin-3-yl)methyl)-4-chloro-N-(3-methyl-5-(phenylethynyl)pyridin-2-yl)-1H-pyrazole-5-carboxamide]
IC50: 530 nM

CC(C)(C)OC(=O)N1CCC(n2ncc(Cl)c2C(=O)Nc2c(F)cc(C#Cc3ccccc3)cc2F)C1 (centres unmarked) [Compound 297, tert-butyl 3-(4-chloro-5-((2,6-difluoro-4-(phenyethynyl)phenyl)carbamoyl)-1H-pyrazol-1-yl)pyrroldine-1-carboxylate]
IC50: 540 nM

Cc1cc(C#Cc2ccccc2)cnc1NC(=O)c1c(Cl)cnn1[C@H]1CCN(C(=O)OC(C)(C)C)C1 [Compound 298, tert-butyl (S)-3-(4-chloro-5-((3-methyl-5-(phenylethynyl)pyridin-2-yl)carbamoyl)-1H-pyrazol-1-yl)pyrrolidine-1-carboxylate]
IC50: 540 nM

O=C(Nc1ncc(C#Cc2ccccc2)cc1F)c1c(Cl)cnn1C1CCN(C(=O)C2CCCC2)CC1 [Compound 299, 4-chloro-1-(1-(cyclopentanecarbonyl)piperidin-4-yl)-N-(3-fluoro-5-(phenylethynyl)pyridin-2-yl)-1H-pyrazole-5-carboxamide]
IC50: 540 nM

CC(C)(C)OC(=O)N1CCOC(Cn2ncc(Cl)c2C(=O)Nc2ncc(C#Cc3ccccc3)cc2F)C1 (centres unmarked) [Compound 300, tert-butyl 2-((4-chloro-5-((3-fluoro-5-(phenylethynyl)pyridin-2-yl)carbamoyl)-1H-pyrazol-1-yl)methyl)morpholine-4-carboxylate]
IC50: 540 nM
